What was measured:
Format in all cases: functional
[1] = Number of Swiss mice (Mus musculus) alive in a batch of 5 infected with multidrug-resistant Plasmodium yoelii, on day 28 after intramuscular administration of 96 mg/kg/day dose
Rattus norvegicus [2] = test: Number of Swiss mice (Mus musculus) alive in a batch of 5 infected with multidrug-resistant Plasmodium yoelii, on day 28 after peroral administration of 96 mg/kg/day dose; details: route oral
Rattus norvegicus [3] = test: Number of Swiss mice (Mus musculus) alive in a batch of 5 infected with multidrug-resistant Plasmodium yoelii, on day 28 after oral administration of 24 mg/kg/day dose
Rattus norvegicus [4] = test: Number of Swiss mice (Mus musculus) alive in a batch of 5 infected with multidrug-resistant Plasmodium yoelii, on day 28 after peroral administration of 48 mg/kg/day dose; details: route oral

Row | SMILES | Activity [1] | Activity (Rattus norvegicus [2]) | Activity (Rattus norvegicus [3]) | Activity (Rattus norvegicus [4])
1 | C=C(c1ccccc1)C1COC2(CCC(O)CC2)OO1 (stereo not drawn) | 0 | 0 | – | –
2 | C=C(c1ccccc1)C1COC2(CCC(O)(c3ccccc3)CC2)OO1 (stereo not drawn) | 0 | 0 | – | –
3 | C=C(c1ccccc1)C1COC2(CCC(=CC(=O)OCC)CC2)OO1 (stereo not drawn) | 2 | 5 | 0 | 5
4 | C=C(c1ccccc1)C1COC2(CCC(OC(=O)CCC(=O)O)CC2)OO1 (stereo not drawn) | 0 | 0 | – | –
5 | C=C(c1ccccc1)C1COC2(CCC(O)(CC(=O)OCC)CC2)OO1 (stereo in doubt; form 1) | 0 | 0 | – | –
6 | C=C(c1ccc(-c2ccccc2)cc1)C1COC2(CCC(=C(C)C(=O)OCC)CC2)OO1 (stereo not drawn) | 0 | 2 | – | 0
7 | C=C(c1ccc(-c2ccccc2)cc1)C1COC2(CCC(O)(CC(=O)OCC)CC2)OO1 (stereo in doubt; form 1) | 0 | 0 | – | –
8 | C=C(c1ccccc1)C1COC2(CCC(C)(O)CC2)OO1 (stereo not drawn) | 2 | 0 | – | –
9 | C=C(c1ccc(-c2ccccc2)cc1)C1COC2(CCC(O)CC2)OO1 (stereo not drawn) | 2 | 0 | – | –
10 | C=C(c1ccc(-c2ccccc2)cc1)C1COC2(CCC(=CC(=O)OCC)CC2)OO1 (stereo not drawn) | 0 | 5 | – | 0
11 | C=C(c1ccccc1)C1COC2(CCC(=C(C)C(=O)OCC)CC2)OO1 (stereo not drawn) | 0 | 0 | – | –
12 | C=C(c1ccc(-c2ccccc2)cc1)C1COC2(CCC(OC(=O)CCC(=O)O)CC2)OO1 (stereo not drawn) | 0 | 0 | – | –
